According to article PMC9495681, “Examining Topoisomers of a Snake-Venom-Derived Peptide for Improved Antimicrobial and Antitumoral Properties” (Biomedicines, 2022):
Values after ≈ are worked out from the molar mass of the structure shown. Square brackets hold non-standard residues; d marks the D form. Peptide text beside a SMILES is read from it.

Assays:
Serum stability = assay type: in vitro ADME; conditions: 0.5 mL each of human serum (Sigma-Aldrich) and peptide (1 mM in water), 37 °C with stirring, trichloroacetic acid treatment, HPLC / LC-MS
Procedure: Briefly, 0.5 mL each of human serum (Sigma-Aldrich, St. Louis, MO, USA) and peptide (1 mM in water) were mixed and incubated for 24 h at 37 °C with stirring. Aliquots (0.1 mL) were taken at 0, 1, 5, 10, 30, 120, 360 and 1440 min and treated with 20 μL of trichloroacetic acid (15% (v/v) in water). The suspension was centrifuged for 30 min at 4 °C and 13,000 rpm, and the supernatant was analyzed by HPLC as described above.

[1] = test system: Pseudomonas sp. (ATCC15915); assay: Minimal inhibitory concentration (MIC), broth microdilution; assay type: cell-based; conditions: Mueller Hinton Broth, 5 × 10^5 CFU/mL, 0.04% BSA and 0.002% acetic acid, 20–22 h at 37 °C, duplicate
Procedure: (§1) Assays were performed on three Gram-negative bacteria: E. coli (BW25113, Coli Genetic Stock Center), A. baumannii (ATCC 15308, CECT, Valencia, Spain), and Pseudomonas sp. (ATCC15915, CECT). The minimal inhibitory concentration (MIC) of each peptide was determined as described by Wiegand et al.. Peptide stocks in water were added to polypropylene 96-well plates (Greiner, Frickenhausen, Germany) and serially diluted from 100 to 0.2 μM. Fresh bacteria were incubated at 37 °C in Mueller Hinton Broth (MHB, Condalab, Torrejón de Ardoz, Spain) up to exponential growth and diluted to a final inoculum of 5 × 10^5 CFU/mL. BSA and acetic acid at 0.04% (w/v) and 0.002% (v/v) final concentration, respectively, were added to avoid peptide self-aggregation. Plates were incubated for 20–22 h at 37 °C. Each peptide was tested in duplicate. MIC values were the lowest peptide concentration where bacterial growth was not detected.

E. coli (BW25113) = assay: as above; assay type: cell-based; conditions: Mueller Hinton Broth, 5 × 10^5 CFU/mL, 0.04% BSA and 0.002% acetic acid, 20–22 h at 37 °C, duplicate
Procedure: as §1

[2] = test system: A. baumannii (ATCC 15308); assay: as above; assay type: cell-based; conditions: Mueller Hinton Broth, 5 × 10^5 CFU/mL, 0.04% BSA and 0.002% acetic acid, 20–22 h at 37 °C, duplicate
Procedure: as §1

1BR3G human fibroblasts = assay: Peptide cytotoxicity (Cell Titer Blue viability); assay type: cell-based; conditions: 24 h treatment, medium with 2% FBS, Cell Titer Blue fluorescence, triplicate
From the text: Human HeLa S3 (cervix epithelial carcinoma), leukemia Jurkat E6.1 (T-cell lineage), U937 (histiocytic lymphoma), THP-1 (acute monocytic leukemia), and 1BR3G human fibroblasts were obtained from the Cell Lines Repository of the Institut Municipal d’Investigació Medica (Barcelona, Spain). BxPC3 (pancreas adenocarcinoma), A549 (lung carcinoma), SH-Sy5Y (neuroblastoma), Panc1 (epithelioid carcinoma), 786-O (renal cell adenocarcinoma), and HT29 (colorectal adenocarcinoma) were obtained from the Integrative Biomedical Materials and Nanomedicine lab at UPF (Barcelona, Spain). HeLa S3, Jurkat E6.1, U937, THP-1, Panc1, and 786-O were cultured in Roswell Park Memorial Institute medium (RPMI) supplemented with 10% fetal bovine serum (FBS) and 1% penicillin/streptomycin solution and maintained at 37 °C in a humidified atmosphere with 5% of CO2. 1BR3G, BxPC3, A549, and HT29 were cultured in Dulbecco’s Modified Eagle’s Medium (DMEM) supplemented with 10% FBS and 1% penicillin/streptomycin solution and maintained at 37 °C in a humidified atmosphere with 5% of CO2. SH-Sy5Y was cultured in DMEM supplemented with 15% FBS and 1% penicillin/streptomycin and maintained at 37 °C in a humidified atmosphere with 5% of CO2. Cultures were maintained at 10^5–10^6 cell/mL densities. For 1BR3G human fibroblasts, BxPC3, A549, SH-Sy5Y, Panc1, 786-O, and HT29 were split every time they reached 80–90% of confluence after harvesting with PBS and trypsin.
About 60,000 cells were added to different microfuge tubes containing 2-fold serial dilution of the peptide, with a final concentration in the range between 0.1–100 μM in RPMI containing 2% of FBS. After 30 min incubation at 37 °C and 5% of CO2, […] of medium containing approximately 10,000 treated cells were transferred to a 96-well plate. Then, 15 μL of Cell Titer Blue dye (Promega, Madison, WI, USA) was added, and plates were reincubated for 24 h. Fluorescence was read at 4 and 24 h after dye addition in a Synergy HTX (BioTek, Winooski, VT, USA) reader, with λexc = 560 nm and λem = 620 nm. In the case of adherent cultures, 5000 cells/well were seeded in 96-well plates. After 24 h incubation at 37 °C and 5% of CO2, the medium was removed, and a new medium with 2% of FBS containing the various 2-fold dilution of the peptides was added. After a further 30 min, 15 μL of Cell Titer Blue dye was added to each well, and the measurement was done as above. Relative viability was calculated relative to a cell with only 2% FBS in the corresponding medium as a control (100% viability). All assays were conducted in triplicate.

| Structure (SMILES) | remaining at 24 h, 0.5 mM (Serum stability; 24 h (1440 min), read-out: Peptide remaining in human serum after 24 h) | MIC Pseudomonas sp. [1] | MIC E. coli (E. coli (BW25113)) | MIC A. baumannii [2] | IC50 (cell viability) human fibroblast 1BR3G (1BR3G human fibroblasts) | half-life at 0.5 mM (Serum stability; aliquots 0–1440 min, read-out: t1/2 in human serum) |
| --- | --- | --- | --- | --- | --- | --- |
| CC[C@@H](C)[C@@H](NC(=O)[C@@H](CCCCN)NC(=O)[C@@H](CCCCN)NC(=O)[C@@H](CC(C)C)NC(=O)[C@@H](CCCNC(=N)N)NC(=O)[C@@H](CCCCN)NC(=O)[C@@H](CCCCN)NC(=O)[C@H](NC(=O)[C@@H](CO)NC(=O)[C@@H](CCCCN)NC(=O)[C@@H](CCCCN)NC(=O)[C@H](NC(=O)[C@@H](CCCCN)NC(=O)[C@@H](CCCCN)NC(=O)[C@@H](Cc1ccccc1)NC(=O)[C@@H](Cc1ccccc1)NC(=O)[C@@H](CCCCN)NC(=O)[C@@H](CCCCN)NC(=O)[C@@H](Cc1ccccc1)NC(=O)[C@@H](CCCNC(=N)N)NC(=O)[C@H](N)CCCCN)C(C)C)C(C)C)C(=O)N[C@H](Cc1ccccc1)C(=O)N[C@H](CCCCN)C(=O)N[C@H](CCCCN)C(=O)N1CCC[C@@H]1C(=O)N[C@H](CCSC)C(=O)N[C@@H](C(=O)N[C@@H](C(=O)NCC(=O)N[C@@H](C(=O)N[C@@H](C(=O)N[C@@H](C(=O)N1CCC[C@@H]1C(=O)N[C@H](Cc1ccccc1)C(N)=O)[C@H](C)CC)[C@H](C)O)C(C)C)[C@H](C)CC)C(C)C [Ctn enantio] (H-[dK][dR][dF][dK][dK][dF][dF][dK][dK][dV][dK][dK][dS][dV][dK][dK][dR][dL][dK][dK][dI][dF][dK][dK][dP][dM][dV][dI]G[dV][dT][dI][dP][dF]-NH2) | 30% | 0.39 µM (≈ 1.62 µg/mL) | 0.39 µM (≈ 1.62 µg/mL) | 1.56 µM (≈ 6.48 µg/mL) | 2700 nM |  |
| CC[C@H](C)[C@H](NC(=O)CNC(=O)[C@@H](NC(=O)[C@@H](NC(=O)[C@@H](NC(=O)[C@@H]1CCCN1C(=O)[C@@H](N)Cc1ccccc1)[C@@H](C)CC)[C@@H](C)O)C(C)C)C(=O)N[C@H](C(=O)N[C@@H](CCSC)C(=O)N1CCC[C@H]1C(=O)N[C@@H](CCCCN)C(=O)N[C@@H](CCCCN)C(=O)N[C@@H](Cc1ccccc1)C(=O)N[C@H](C(=O)N[C@@H](CCCCN)C(=O)N[C@@H](CCCCN)C(=O)N[C@@H](CC(C)C)C(=O)N[C@@H](CCCNC(=N)N)C(=O)N[C@@H](CCCCN)C(=O)N[C@@H](CCCCN)C(=O)N[C@H](C(=O)N[C@@H](CO)C(=O)N[C@@H](CCCCN)C(=O)N[C@@H](CCCCN)C(=O)N[C@H](C(=O)N[C@@H](CCCCN)C(=O)N[C@@H](CCCCN)C(=O)N[C@@H](Cc1ccccc1)C(=O)N[C@@H](Cc1ccccc1)C(=O)N[C@@H](CCCCN)C(=O)N[C@@H](CCCCN)C(=O)N[C@@H](Cc1ccccc1)C(=O)N[C@@H](CCCNC(=N)N)C(=O)N[C@@H](CCCCN)C(N)=O)C(C)C)C(C)C)[C@@H](C)CC)C(C)C [Ctn retro] (H-FPITVGIVMPKKFIKKLRKKVSKKVKKFFKKFRK-NH2) |  | 1.56 µM (≈ 6.48 µg/mL) | 0.78 µM (≈ 3.24 µg/mL) | 1.56 µM (≈ 6.48 µg/mL) |  |  |
| CC[C@@H](C)[C@@H](NC(=O)[C@@H](CCCCN)NC(=O)[C@@H](CCCCN)NC(=O)[C@@H](CC(C)C)NC(=O)[C@@H](CCCNC(=N)N)NC(=O)[C@@H](CCCCN)NC(=O)[C@H](N)CCCCN)C(=O)N[C@H](Cc1ccccc1)C(=O)N[C@H](CCCCN)C(=O)N[C@H](CCCCN)C(=O)N1CCC[C@@H]1C(=O)N[C@H](CCSC)C(=O)N[C@@H](C(=O)N[C@@H](C(=O)NCC(=O)N[C@@H](C(=O)N[C@@H](C(=O)N[C@@H](C(=O)N1CCC[C@@H]1C(=O)N[C@H](Cc1ccccc1)C(N)=O)[C@H](C)CC)[C@H](C)O)C(C)C)[C@H](C)CC)C(C)C [Ctn[15-34] enantio] (H-[dK][dK][dR][dL][dK][dK][dI][dF][dK][dK][dP][dM][dV][dI]G[dV][dT][dI][dP][dF]-NH2) |  | 0.1 µM (≈ 0.237 µg/mL) | 0.16 µM (≈ 0.379 µg/mL) | 0.39 µM (≈ 0.925 µg/mL) |  |  |
| CC[C@H](C)[C@H](NC(=O)CNC(=O)[C@@H](NC(=O)[C@@H](NC(=O)[C@@H](NC(=O)[C@@H]1CCCN1C(=O)[C@@H](N)Cc1ccccc1)[C@@H](C)CC)[C@@H](C)O)C(C)C)C(=O)N[C@H](C(=O)N[C@@H](CCSC)C(=O)N1CCC[C@H]1C(=O)N[C@@H](CCCCN)C(=O)N[C@@H](CCCCN)C(=O)N[C@@H](Cc1ccccc1)C(=O)N[C@H](C(=O)N[C@@H](CCCCN)C(=O)N[C@@H](CCCCN)C(=O)N[C@@H](CC(C)C)C(=O)N[C@@H](CCCNC(=N)N)C(=O)N[C@@H](CCCCN)C(=O)N[C@@H](CCCCN)C(N)=O)[C@@H](C)CC)C(C)C [Ctn[15-34] retro] (H-FPITVGIVMPKKFIKKLRKK-NH2) |  | <0.05 µM | 0.16 µM (≈ 0.379 µg/mL) | 0.78 µM (≈ 1.85 µg/mL) | ≈ 15.84 μM |  |
| CC[C@@H](C)[C@@H](NC(=O)CNC(=O)[C@H](NC(=O)[C@H](NC(=O)[C@H](NC(=O)[C@H]1CCCN1C(=O)[C@H](N)Cc1ccccc1)[C@H](C)CC)[C@H](C)O)C(C)C)C(=O)N[C@@H](C(=O)N[C@H](CCSC)C(=O)N1CCC[C@@H]1C(=O)N[C@H](CCCCN)C(=O)N[C@H](CCCCN)C(=O)N[C@H](Cc1ccccc1)C(=O)N[C@@H](C(=O)N[C@H](CCCCN)C(=O)N[C@H](CCCCN)C(=O)N[C@H](CC(C)C)C(=O)N[C@H](CCCNC(=N)N)C(=O)N[C@H](CCCCN)C(=O)N[C@H](CCCCN)C(N)=O)[C@H](C)CC)C(C)C [Ctn[15-34] retroenantio] (H-[dF][dP][dI][dT][dV]G[dI][dV][dM][dP][dK][dK][dF][dI][dK][dK][dL][dR][dK][dK]-NH2) |  | 0.1 µM (≈ 0.237 µg/mL) | 0.16 µM (≈ 0.379 µg/mL) | 0.39 µM (≈ 0.925 µg/mL) |  | 15.3 h |
